# Test results: US20260138959A1, “QUINAZOLINE DERIVATIVE COMPOUND AND USE THEREOF” (VORONOI INC., priority 2021, published 2026)
# How the values were obtained:
# Ba/F3-TEL-PDGFβ(WT) = test: Proliferation inhibitory activity on Ba/F3 cell (CellTiter-Glo, 72 hours), PDGFR-β; assay type: cell-based; details: Mus musculus, BaF3, read-out: Ba/F3 (nM) Tel-PDGFRβ (GI50 class)
# Experimental: Ba/F3-TEL-PDGFRα(WT), Ba/F3-TEL-PDGFβ(WT), Ba/F3-c-KIT(D816V) (Kyinno, #KC-0138), c-KIT V560G/D816V, c-KIT D814Y were seeded at 3×10^3/100 μl/well in a clear bottom white 96-well plate. A culture solution containing compounds of 12 concentrations (0.00001-2 mM) serially diluted in 3 folds and the DMSO control group was added at 0.5 μl/well each to a final concentration of 0.00005-10 μM, and then incubated in a CO2 incubator at 37° C. for 72 hours. After 72 hours, the plate treated with the compound was taken out, CellTiter-Glo® Assay (Promega) solution was treated with 100 μl/well, followed by mixing well. After mixing well for about 10 minutes at room temperature, […] was measured using a microplate reader. The data were presented as percentages in proportion to treated cells based on the vehicle, GI50 (nM) values were calculated using GraphPad Prism 8.3.0 (GraphPad software Inc., San Diego).
# The inhibitory activities of Ba/F3 expressing PDGFR-α, PDGFR-β, c-KIT(D816V), c-KIT V560G/D816V, and c-KIT D814Y measured as described above were measured and shown in Table 7 below (A: GI50≤200 nM; B: 200 nM<GI50≤500 nM; C: GI50>500 nM).
# c-KIT V560G/D816V = test: Proliferation inhibitory activity on Ba/F3 cell (CellTiter-Glo, 72 hours), c-KIT V560G/D816V; assay type: cell-based; details: Mus musculus, BaF3, c-KIT V560G/D816V cells, read-out: Cell (nM) c-KIT V560G/D816V (GI50 class)
# How it was run: (§1)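 GI50 here reflects 72 h growth inhibition of engineered Ba/F3 lines dependent on PDGFRα, PDGFRβ or c-KIT mutants (D816V, V560G/D816V, D814Y). Compounds spanned 0.00005-10 μM final; CellTiter-Glo read-out.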
# human PDGFR-β(wt) = target: T1, human PDGFR-β(wt) (Homo sapiens, UniProt P09619); test: Enzyme inhibitory activity, ADP-Glo kinase assay, PDGFR-β(wt); assay type: biochemical; details: read-out: PDGFR-β (IC50 class)
# T1 construct: purchased Signalchem P13-11G
# T1 sequence (P09619 33-1106): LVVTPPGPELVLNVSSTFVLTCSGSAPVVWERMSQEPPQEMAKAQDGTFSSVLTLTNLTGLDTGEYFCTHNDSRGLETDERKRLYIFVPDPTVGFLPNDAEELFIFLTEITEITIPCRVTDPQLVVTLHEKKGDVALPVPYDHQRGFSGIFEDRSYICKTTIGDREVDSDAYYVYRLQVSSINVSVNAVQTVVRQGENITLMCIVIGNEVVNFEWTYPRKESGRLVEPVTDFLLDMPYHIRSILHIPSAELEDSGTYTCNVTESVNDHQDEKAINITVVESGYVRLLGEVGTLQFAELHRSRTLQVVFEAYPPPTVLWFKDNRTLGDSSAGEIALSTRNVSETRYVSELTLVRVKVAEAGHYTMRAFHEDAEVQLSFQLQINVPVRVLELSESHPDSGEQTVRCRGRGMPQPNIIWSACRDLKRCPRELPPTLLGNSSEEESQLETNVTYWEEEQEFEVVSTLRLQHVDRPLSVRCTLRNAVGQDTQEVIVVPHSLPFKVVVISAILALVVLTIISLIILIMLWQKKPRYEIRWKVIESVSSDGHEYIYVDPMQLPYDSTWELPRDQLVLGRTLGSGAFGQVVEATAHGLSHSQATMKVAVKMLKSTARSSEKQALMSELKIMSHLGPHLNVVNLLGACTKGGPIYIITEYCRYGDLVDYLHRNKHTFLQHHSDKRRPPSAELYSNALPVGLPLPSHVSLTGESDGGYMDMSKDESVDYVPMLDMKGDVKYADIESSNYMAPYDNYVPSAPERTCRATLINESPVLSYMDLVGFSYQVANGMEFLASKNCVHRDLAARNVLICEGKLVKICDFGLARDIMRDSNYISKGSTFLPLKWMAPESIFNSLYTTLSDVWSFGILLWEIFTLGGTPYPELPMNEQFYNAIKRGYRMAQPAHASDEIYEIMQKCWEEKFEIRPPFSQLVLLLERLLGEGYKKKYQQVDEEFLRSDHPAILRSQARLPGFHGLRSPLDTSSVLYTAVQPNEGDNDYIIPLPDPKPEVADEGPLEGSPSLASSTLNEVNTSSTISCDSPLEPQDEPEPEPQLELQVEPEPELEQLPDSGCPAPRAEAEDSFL
# Experimental: In order to evaluate the inhibitory activity of the compounds synthesized according to the above examples on PDGFR-α(wt), PDGFR-β(wt), c-KIT(wt), and c-KIT(D816V) kinases, the following method was performed. The compounds of examples were reacted with purified human PDGFR-α(wt) (Signalchem #P12-18G) enzyme, human PDGFR-β(wt) (Signalchem #P13-11G) enzyme, human c-KIT(wt) (Signalchem #K06-11BG) enzyme, human c-KIT(D816V) (Signalchem #C06-12LG) enzyme, and the enzyme inhibitory abilities were evaluated by the following method.
# The reaction buffer was used as a composition of 40 mM Tris-HCl pH7.4, 20 mM MgCl2, 0.5 mg/ml BSA, 50 μM DTT, and the reactions of all the tests were carried out on the reaction buffer. The compound was diluted in 12 steps using a serial dilution method from a 10 mM DMSO stock, and the enzyme activity was measured at a final compound concentration of 10˜0.00005645 μM. During the test, the enzyme activity was confirmed using in vitro ADP-Glo™ kinase assay (Promega) after reacting with the proper concentration of human PDGFR-α(wt) enzyme, human PDGFR-β(wt), human c-KIT(wt) enzyme, and human c-KIT(D816V) enzyme with purified ATP and enzyme substrate at 25° C. for 1˜2 hours. At a ratio of 2:2:1, an enzyme-active reaction solution, an ADP-Glo reaction solution, and an enzyme-active detection solution were reacted to measure the inhibition of the enzyme's activity with luminoscence. Based on the […] of the enzyme activity of the solvent control that was not treated with the compound, the degree of enzyme activity inhibition was calculated according to the treatment concentration of each compound, and the concentration of each compound that inhibits 50% of enzyme activity was determined as IC50 (nM) value and the value was obtained by using GraphPad Prism 8.3.0 (GraphPad software Inc., San Diego) software. (A: IC50≤50 nM; B: 50 nM<IC50≤100 nM; C: 100 nM<IC50≤500 nM; D: IC50>500 nM).
# Ba/F3-c-KIT(D816V) = test: Proliferation inhibitory activity on Ba/F3 cell (CellTiter-Glo, 72 hours), c-KIT(D816V); assay type: cell-based; details: Mus musculus, BaF3, read-out: Ba/F3 (nM) c-KIT (D816V) (GI50 class)
# How it was run: as §1
GI50 (Ba/F3-TEL-PDGFβ(WT)),GI50 (c-KIT V560G/D816V),IC50 (human PDGFR-β(wt)),Compound,GI50 (Ba/F3-c-KIT(D816V))
≤ 200 nM,,,"COCCN1CCC(COc2cc3ncnc(-c4ccc(NC(=O)Cc5ccc6c(c5)OCO6)c(C)c4)c3cc2OC)CC1 [Example 53, 2-(benzo[d][1,3]dioxol-5-yl)-N-(4-(6-methoxy-7-((1-(2-methoxyethyl)piperidin-4-yl)methoxy)quinazolin-4-yl)-2-methylphenyl)acetamide]",
≤ 200 nM,≤ 200 nM,≤ 0.05 µM,"CCN1CCC(COc2cc3ncnc(-c4ccc(NC(=O)Cc5ccc6c(c5)OCO6)cc4)c3cc2OC)CC1 [Example 99, 2-(benzo[d][1,3]dioxol-5-yl)-N-(4-(7-((1-ethylpiperidin-4-yl)methoxy)-6-methoxyquinazolin-4-yl)phenyl)acetamide]",
≤ 200 nM,,≤ 0.05 µM,"COc1cc2c(-c3ccc(NC(=O)Cc4ccc(C(F)(F)F)cc4)c(C)c3)ncnc2cc1OCCCN1CCN(C)CC1 [Example 49, N-(4-(6-methoxy-7-(3-(4-methylpiperazin-1-yl)propoxy)quinazolin-4-yl)-2-methylphenyl)-2-(4-(trifluoromethyl)phenyl)acetamide]",
≤ 200 nM,> 500 nM,≤ 0.05 µM,"COc1cc2c(-c3ccc(NC(=O)Cc4ccc5c(c4)OCO5)cc3)ncnc2cc1OCC1CCNCC1 [Example 97, 2-(benzo[d][1,3]dioxol-5-yl)-N-(4-(6-methoxy-7-(piperidin-4-ylmethoxy)quinazolin-4-yl)phenyl)acetamide]",
≤ 200 nM,,≤ 0.05 µM,"COc1cc2c(-c3ccc(C(=O)NCc4ccc5c(c4)OCO5)cc3)ncnc2cc1OCCCN1CCN(C)CC1 [Example 166, N-(benzo[d][1,3]dioxol-5-ylmethyl)-4-(6-methoxy-7-(3-(4-methylpiperazin-1-yl)propoxy)quinazolin-4-yl)benzamide]",
≤ 200 nM,≤ 200 nM,≤ 0.05 µM,"COCCN1CCC(COc2cc3ncnc(-c4ccc(NC(=O)Cc5ccc6c(c5)OCO6)cc4)c3cc2OC)CC1 [Example 98, 2-(benzo[d][1,3]dioxol-5-yl)-N-(4-(6-methoxy-7-((1-(2-methoxyethyl)piperidin-4-yl)methoxy)quinazolin-4-yl)phenyl)acetamide]",
≤ 200 nM,,≤ 0.05 µM,COc1cc2c(-c3ccc(NC(=O)Cc4ccc5c(c4)OCO5)c(C)c3)ncnc2cc1OCCCN1CCN(C)CC1 [Example 164],
≤ 200 nM,≤ 200 nM,≤ 0.05 µM,"COc1cc2c(-c3ccc(NC(=O)Cc4ccc(C(F)(F)F)nc4)cc3)ncnc2cc1OCC1CCN(C(C)C)CC1 [Example 121, N-(4-(7-((1-isopropylpiperidin-4-yl)methoxy)-6-methoxyquinazolin-4-yl)phenyl)-2-(6-(trifluoromethyl)pyridin-3-yl)acetamide]",
≤ 200 nM,,≤ 0.05 µM,"COc1cc2c(-c3ccc(NC(=O)Cc4ccc5c(c4)OCO5)c(F)c3)ncnc2cc1OCCCN1CCN(C)CC1 [Example 163, 2-(benzo[d][1,3]dioxol-5-yl)-N-(2-fluoro-4-(6-methoxy-7-(3-(4-methylpiperazin-1-yl)propoxy)quinazolin-4-yl)phenyl)acetamide]",
≤ 200 nM,,≤ 0.05 µM,"COc1cc2c(-c3ccc(NC(=O)C(C)c4ccco4)cc3)ncnc2cc1OCCCN1CCN(C)CC1 (stereo not shown) [Example 48, 2-(furan-2-yl)-N-(4-(6-methoxy-7-(3-(4-methylpiperazin-1-yl)propoxy)quinazolin-4-yl)phenyl)propanamide]",
≤ 200 nM,≤ 200 nM,≤ 0.05 µM,"COCCN1CCC(COc2cc3ncnc(-c4ccc(NC(=O)Cc5ccc(Cl)nc5)cc4)c3cc2OC)CC1 [Example 113, 2-(6-chloropyridin-3-yl)-N-(4-(6-methoxy-7-((1-(2-methoxyethyl)piperidin-4-yl)methoxy)quinazolin-4-yl)phenyl)acetamide]",
≤ 200 nM,≤ 200 nM,≤ 0.05 µM,"CCN1CCCC(COc2cc3ncnc(-c4ccc(NC(=O)Cc5ccc(C(F)(F)F)nc5)cc4)c3cc2OC)C1 (stereo not shown) [Example 110, N-(4-(7-((1-ethylpiperidin-3-yl)methoxy)-6-methoxyquinazolin-4-yl)phenyl)-2-(6-(trifluoromethyl)pyridin-3-yl)acetamide]",
≤ 200 nM,,≤ 0.05 µM,"COc1cc2c(-c3ccc(NC(=O)Cc4ccc5c(c4)OCO5)cc3)ncnc2cc1OCCCN1CCN(C)CC1 [Example 54, 2-(benzo[d][1,3]dioxol-5-yl)-N-(4-(6-methoxy-7-(3-(4-methylpiperazin-1-yl)propoxy)quinazolin-4-yl)phenyl)acetamide]",
≤ 200 nM,,≤ 0.05 µM,"COc1cc2c(-c3ccc(NC(=O)Cc4cscn4)cc3)ncnc2cc1OCCCN1CCN(C)CC1 [Example 51, N-(4-(6-methoxy-7-(3-(4-methylpiperazin-1-yl)propoxy)quinazolin-4-yl)phenyl)-2-(thiazole-4-yl)acetamide]",
≤ 200 nM,,≤ 0.05 µM,"COc1cc2c(-c3ccc(NC(=O)Cc4ccc(C(F)(F)F)cc4)c(F)c3)ncnc2cc1OCCCN1CCN(C)CC1 [Example 50, N-(2-fluoro-4-(6-methoxy-7-(3-(4-methylpiperazin-1-yl)propoxy)quinazolin-4-yl)phenyl)-2-(4-(trifluoromethyl)phenyl)acetamide]",
≤ 200 nM,≤ 200 nM,,"COCCOc1cc2ncnc(-c3ccc(NC(=O)Cc4ccc(C(F)(F)F)nc4)cc3)c2cc1OC [Example 118, N-(4-(6-methoxy-7-(2-methoxyethoxy)quinazolin-4-yl)phenyl)-2-(6-(trifluoromethyl)pyridin-3-yl)acetamide]",
≤ 200 nM,,≤ 0.05 µM,"COc1cc2c(-c3ccc(C(=O)NCc4ccc(F)c(F)c4)cc3)ncnc2cc1OCCCN1CCN(C)CC1 [Example 167, N-(3,4-difluorobenzyl)-4-(6-methoxy-7-(3-(4-methylpiperazin-1-yl)propoxy)quinazolin-4-yl)benzamide]",
≤ 200 nM,,,"COCCN1CCC(COc2cc3ncnc(-c4ccc(NC(=O)Cc5ccc6c(c5)OCO6)c(F)c4)c3cc2OC)CC1 [Example 52, 2-(benzo[d][1,3]dioxol-5-yl)-N-(2-fluoro-4-(6-methoxy-7-((1-(2-methoxyethyl)piperidin-4-yl)methoxy)quinazolin-4-yl)phenyl)acetamide]",
≤ 200 nM,,,COc1cc2c(-c3ccc(NC(=O)Nc4cccc(C(F)(F)F)c4)cc3)ncnc2cc1OCCCN1CCN(C)CC1 [Example 169],
≤ 200 nM,,≤ 0.05 µM,"COc1cc2c(-c3ccc(C(=O)NCc4ccc(C(F)(F)F)cc4)cc3)ncnc2cc1OCCCN1CCN(C)CC1 [Example 165, 4-(6-methoxy-7-(3-(4-methylpiperazin-1-yl)propoxy)quinazolin-4-yl)-N-(4-(trifluoromethyl)benzyl)benzamide]",

Compound,GI50 (Ba/F3-TEL-PDGFβ(WT)),GI50 (c-KIT V560G/D816V),IC50 (human PDGFR-β(wt)),GI50 (Ba/F3-c-KIT(D816V))
"COc1cc2ncnc(-c3ccc(NC(=O)Cc4ccc(C(F)(F)F)cc4)cc3)c2cc1OC(=O)N1CCN(C)CC1 [Example 132, 7-methoxy-4-(4-(2-(4-(trifluoromethyl)phenyl)acetamido)phenyl)quinazolin-6-yl 4-methylpiperazin-1-carboxylate]",≤ 200 nM,> 500 nM,,≤ 200 nM
